Measurements: US6432976B1, “8-aza-bicyclo[3.2.1]octane NMDA/NR2B antagonists” (Merck & Co., Inc., priority 1999, dated 2002)
Where a name gives a salt, the structure may show the parent alone.

Row | melting point | Structure (SMILES)
1 | 208 to 209 °C | OC1C(Cc2ccccc2)CC2CCC1N2Cc1nc2ccccc2[nH]1 (racemic)
2 | 172 to 173 °C | COC1C(Cc2ccccc2)CC2CCC1N2Cc1nc2ccccc2[nH]1 (racemic)
3 | 234 to 236 °C | OC1C(Cc2ccccc2)CC2CCC1N2Cc1nc2ccccc2[nH]1 (racemic) (as salt: hydrochloride)
4 | 222 to 226 °C | COC1C(Cc2ccccc2)CC2CCC1N2Cc1nc2ccccc2[nH]1 (racemic) (as salt: hydrochloride)
